# Data published in patent publication US20220177508A1, “C10-Cyclic Substituted 13-Membered Macrolides and Uses Thereof” (Zikani Therapeutics, Inc., priority 2018, published 2022).
# Read-outs that look alike come from different tables or passages of the source.
# Experiments:
# Assay type in all cases: cell-based
# [1] = test system: S. aureus MP-12; assay: Broth dilution MIC determination (CLSI), S. aureus MP-12; conditions: Staphylococcus aureus, MP12; strain MP-12, broth dilution
# [2] = test system: E. coli MP-4; assay: Broth dilution MIC determination (CLSI), E. coli MP-4; conditions: Escherichia coli
# [3] = test system: K. pneumoniae MP-546; assay: Broth dilution MIC determination (CLSI), K. pneumoniae MP-546; conditions: Klebsiella pneumoniae, MP546; strain MP-546, broth dilution
# [4] = test system: P. aeruginosa MP-3; assay: Broth dilution MIC determination (CLSI), P. aeruginosa MP-3; conditions: Pseudomonas aeruginosa, MP3; strain MP-3, broth dilution
# [5] = test system: A. baumannii MP-15; assay: Broth dilution MIC determination (CLSI), A. baumannii MP-15; conditions: Acinetobacter baumannii, MP15; strain MP-15, broth dilution; read-out: MIC A. baumanii MP-15
# [6] = MP4, strain MP-4, broth dilution, read-out: MIC E. coli MP-4
compound,measurement,setting,value
"CO[C@]1(C)C[C@@H](C)CN(C)[C@H]([C@@H]2CCN(C(=O)CN(C)C)C2)COC(=O)C(C)(C)C(=O)[C@H](C)[C@H]1O[C@@H]1O[C@H](C)C[C@H](N(C)C)[C@H]1O [Compound 148, (3R,6R,8R,9R,10R)-9-(((2S,3R,4S,6R)-4-(Dimethylamino)-3-hydroxy-6-methyltetrahydro-2H-pyran-2-yl)oxy)-3-((R)-1-(dimethylglycyl)pyrrolidin-3-yl)-8-methoxy-4,6,8,10,12,12-hexamethyl-1-oxa-4-azacyclotridecane-11,13-dione]",MIC,[1],> 32 µg/mL
same,MIC,[2]; [6],< 4 µg/mL
same,MIC,[3],4 to 32 µg/mL
same,MIC,[4],> 32 µg/mL
same,MIC,[5],> 32 µg/mL
CO[C@]1(C)C[C@@H](C)CN(C)[C@@H](C2CN(C(=O)C(C)(C)N(C)C)C2)COC(=O)C(C)(C)C(=O)[C@H](C)[C@H]1O[C@@H]1O[C@H](C)C[C@H](N(C)C)[C@H]1O [Compound 149],MIC,[1],> 32 µg/mL
same,MIC,[2]; [6],< 4 µg/mL
same,MIC,[3],4 to 32 µg/mL
same,MIC,[4],> 32 µg/mL
same,MIC,[5],> 32 µg/mL
"CO[C@]1(C)C[C@@H](C)CN(C)[C@H](C2CN(C(=O)CN3CC(F)(F)C3)C2)COC(=O)C(C)(C)C(=O)[C@H](C)[C@H]1O[C@@H]1O[C@H](C)C[C@H](N(C)C)[C@H]1O [Compound 154, (3R,6R,8R,9R,10R)-3-(1-(2-(3,3-difluoroazetidin-1-yl)acetyl)azetidin-3-yl)-9-(((2S,3R,4S,6R)-4-(dimethylamino)-3-hydroxy-6-methyltetrahydro-2H-pyran-2-yl)oxy)-8-methoxy-4,6,8,10,12,12-hexamethyl-1-oxa-4-azacyclotridecane-11,13-dione]",MIC,[1],4 to 32 µg/mL
same,MIC,[2]; [6],< 4 µg/mL
same,MIC,[3],4 to 32 µg/mL
same,MIC,[4],> 32 µg/mL
same,MIC,[5],> 32 µg/mL
"CO[C@]1(C)C[C@@H](C)CN(C)[C@H](C2CN(CC=C(C)C)C2)COC(=O)C(C)(C)C(=O)[C@H](C)[C@H]1O[C@@H]1O[C@H](C)C[C@H](N(C)C)[C@H]1O [Compound 155, (3R,6R,8R,9R,10R)-9-(((2S,3R,4S,6R)-4-(dimethylamino)-3-hydroxy-6-methyltetrahydro-2H-pyran-2-yl)oxy)-8-methoxy-4,6,8,10,12,12-hexamethyl-3-(1-(3-methylbut-2-en-1-yl)azetidin-3-yl)-1-oxa-4-azacyclotridecane-11,13-dione]",MIC,[1],4 to 32 µg/mL
same,MIC,"[2]; MP4, read-out: MIC E. coli MP-4",< 4 µg/mL
same,MIC,[3],< 4 µg/mL
same,MIC,[4],> 32 µg/mL
same,MIC,[5],4 to 32 µg/mL
"CCN(C)[C@H]1CC[C@H]([C@H]2COC(=O)C(C)(C)C(=O)[C@H](C)[C@@H](O[C@@H]3O[C@H](C)C[C@H](N(C)C)[C@H]3O)[C@](C)(OC)C[C@@H](C)CN2C)CC1 [Compound 157, (3S,6R,8R,9R,10R)-9-(((2S,3R,4S,6R)-4-(dimethylamino)-3-hydroxy-6-methyltetrahydro-2H-pyran-2-yl)oxy)-3-((1r,4S)-4-(ethyl(methyl)amino)cyclohexyl)-8-methoxy-4,6,8,10,12,12-hexamethyl-1-oxa-4-azacyclotridecane-11,13-dione]",MIC,[1],> 32 µg/mL
same,MIC,[2]; [6],4 to 32 µg/mL
same,MIC,[3],4 to 32 µg/mL
same,MIC,[4],> 32 µg/mL
same,MIC,[5],> 32 µg/mL
"CO[C@]1(C)C[C@@H](C)CN(C)[C@H](C2CCN(C(=O)CN(C)C)CC2)[C@H](C)OC(=O)C(C)(C)C(=O)[C@H](C)[C@H]1O[C@@H]1O[C@H](C)C[C@H](N(C)C)[C@H]1O [Compound 159, (2S,3R,6R,8R,9R,10R)-9-(((2S,3R,4S,6R)-4-(dimethylamino)-3-hydroxy-6-methyltetrahydro-2H-pyran-2-yl)oxy)-3-(1-(dimethylglycyl)piperidin-4-yl)-8-methoxy-2,4,6,8,10,12,12-heptamethyl-1-oxa-4-azacyclotridecane-11,13-dione]",MIC,[1],> 32 µg/mL
same,MIC,[2]; [6],4 to 32 µg/mL
same,MIC,[3],> 32 µg/mL
same,MIC,[4],> 32 µg/mL
same,MIC,[5],> 32 µg/mL
"CO[C@]1(C)C[C@@H](C)CN(C)[C@H]([C@H]2CCN(C)C2)COC(=O)C(C)(C)C(=O)[C@H](C)[C@H]1O[C@@H]1O[C@H](C)C[C@H](N(C)C)[C@H]1O [Compound 166, (3R,6R,8R,9R,10R)-9-(((2S,3R,4S,6R)-4-(Dimethylamino)-3-hydroxy-6-methyltetrahydro-2H-pyran-2-yl)oxy)-8-methoxy-4,6,8,10,12,12-hexamethyl-3-((S)-1-methylpyrrolidin-3-yl)-1-oxa-4-azacyclotridecane-11,13-dione]",MIC,[1],> 32 µg/mL
same,MIC,[2]; [6],< 4 µg/mL
same,MIC,[3],< 4 µg/mL
same,MIC,[4],> 32 µg/mL
same,MIC,[5],> 32 µg/mL
"CO[C@]1(C)C[C@@H](C)CN(C)[C@H](C2CN(C(=O)CC(C)(C)CN(C)CC(C)C)C2)COC(=O)C(C)(C)C(=O)[C@H](C)[C@H]1O[C@@H]1O[C@H](C)C[C@H](N(C)C)[C@H]1O [Compound 167, (3R,6R,8R,9R,10R)-9-(((2S,3R,4S,6R)-4-(dimethylamino)-3-hydroxy-6-methyltetrahydro-2H-pyran-2-yl)oxy)-3-(1-(4-(isobutyl(methyl)amino)-3,3-dimethylbutanoyl)azetidin-3-yl)-8-methoxy-4,6,8,10,12,12-hexamethyl-1-oxa-4-azacyclotridecane-11,13-dione]",MIC,[1],4 to 32 µg/mL
same,MIC,[2]; [6],< 4 µg/mL
same,MIC,[3],4 to 32 µg/mL
same,MIC,[4],> 32 µg/mL
same,MIC,[5],> 32 µg/mL
"CO[C@]1(C)C[C@@H](C)CN(C)[C@@H]([C@@H]2CCN(C(=O)CN(C)C)C2)COC(=O)C(C)(C)C(=O)[C@H](C)[C@H]1O[C@@H]1O[C@H](C)C[C@H](N(C)C)[C@H]1O [Compound 169, (3S,6R,8R,9R,10R)-9-(((2S,3R,4S,6R)-4-(Dimethylamino)-3-hydroxy-6-methyltetrahydro-2H-pyran-2-yl)oxy)-3-((R)-1-(dimethylglycyl)pyrrolidin-3-yl)-8-methoxy-4,6,8,10,12,12-hexamethyl-1-oxa-4-azacyclotridecane-11,13-dione]",MIC,[1],4 to 32 µg/mL
same,MIC,[2]; [6],< 4 µg/mL
same,MIC,[3],4 to 32 µg/mL
same,MIC,[4],> 32 µg/mL
same,MIC,[5],> 32 µg/mL
"CO[C@]1(C)C[C@@H](C)CN(C)[C@H](C2CC3CCC(C2)N3C(C)C)COC(=O)C(C)(C)C(=O)[C@H](C)[C@H]1O[C@@H]1O[C@H](C)C[C@H](N(C)C)[C@H]1O (stereo partly drawn) [Compound 170, (3R,6R,8R,9R,10R)-9-(((2S,3R,4S,6R)-4-(dimethylamino)-3-hydroxy-6-methyltetrahydro-2H-pyran-2-yl)oxy)-3-(8-isopropyl-8-azabicyclo[3.2.1]octan-3-yl)-8-methoxy-4,6,8,10,12,12-hexamethyl-1-oxa-4-azacyclotridecane-11,13-dione]",MIC,[1],4 to 32 µg/mL
same,MIC,[2]; [6],4 to 32 µg/mL
same,MIC,[3],4 to 32 µg/mL
same,MIC,[4],> 32 µg/mL
same,MIC,[5],> 32 µg/mL
"CO[C@]1(C)C[C@@H](C)CN(C)[C@H]([C@H]2CCCN(C)C2)COC(=O)C(C)(C)C(=O)[C@H](C)[C@H]1O[C@@H]1O[C@H](C)C[C@H](N(C)C)[C@H]1O [Compound 171, (3R,6R,8R,9R,10R)-9-(((2S,3R,4S,6R)-4-(dimethylamino)-3-hydroxy-6-methyltetrahydro-2H-pyran-2-yl)oxy)-8-methoxy-4,6,8,10,12,12-hexamethyl-3-((S)-1-methylpiperidin-3-yl)-1-oxa-4-azacyclotridecane-11,13-dione]",MIC,[1],> 32 µg/mL
same,MIC,[2]; [6],4 to 32 µg/mL
same,MIC,[3],4 to 32 µg/mL
same,MIC,[4],> 32 µg/mL
same,MIC,[5],> 32 µg/mL
"CO[C@]1(C)C[C@@H](C)CN(C)[C@H](C2CN(Cc3cn(C)cn3)C2)COC(=O)C(C)(C)C(=O)[C@H](C)[C@H]1O[C@@H]1O[C@H](C)C[C@H](N(C)C)[C@H]1O [Compound 173, (3R,6R,8R,9R,10R)-9-(((2S,3R,4S,6R)-4-(dimethylamino)-3-hydroxy-6-methyltetrahydro-2H-pyran-2-yl)oxy)-8-methoxy-4,6,8,10,12,12-hexamethyl-3-(1-((1-methyl-1H-imidazol-4-yl)methyl)azetidin-3-yl)-1-oxa-4-azacyclotridecane-11,13-dione]",MIC,[1],> 32 µg/mL
same,MIC,[2]; [6],4 to 32 µg/mL
same,MIC,[3],> 32 µg/mL
same,MIC,[4],> 32 µg/mL
same,MIC,[5],> 32 µg/mL
"CO[C@]1(C)C[C@@H](C)CN(C(C)=O)[C@H](C2CCN(C(C)C)CC2)COC(=O)C(C)(C)C(=O)[C@H](C)[C@H]1O[C@@H]1O[C@H](C)C[C@H](N(C)C)[C@H]1O [Compound 174, (3R,6R,8R,9R,10R)-4-Acetyl-9-(((2S,3R,4S,6R)-4-(dimethylamino)-3-hydroxy-6-methyltetrahydro-2H-pyran-2-yl)oxy)-3-(1-isopropylpiperidin-4-yl)-8-methoxy-6,8,10,12,12-pentamethyl-1-oxa-4-azacyclotridecane-11,13-dione]",MIC,[1],> 32 µg/mL
same,MIC,[2]; [6],> 32 µg/mL
same,MIC,[3],> 32 µg/mL
same,MIC,[4],> 32 µg/mL
same,MIC,[5],> 32 µg/mL
"CCN1CCC([C@H]2COC(=O)C(C)(C)C(=O)[C@H](C)[C@@H](O[C@@H]3O[C@H](C)C[C@H](N(C)C)[C@H]3O)[C@](C)(OC)C[C@@H](C)CN2C)CC1 [Compound 175, (3S,6R,8R,9R,10R)-9-(((2S,3R,4S,6R)-4-(dimethylamino)-3-hydroxy-6-methyltetrahydro-2H-pyran-2-yl)oxy)-3-(1-ethylpiperidin-4-yl)-8-methoxy-4,6,8,10,12,12-hexamethyl-1-oxa-4-azacyclotridecane-11,13-dione]",MIC,[1],4 to 32 µg/mL
same,MIC,[2]; [6],< 4 µg/mL
same,MIC,[3],< 4 µg/mL
same,MIC,[4],> 32 µg/mL
same,MIC,[5],> 32 µg/mL
"CO[C@]1(C)C[C@@H](C)CN(C)[C@H](C2CCN(Cc3nccn3C)CC2)COC(=O)C(C)(C)C(=O)[C@H](C)[C@H]1O[C@@H]1O[C@H](C)C[C@H](N(C)C)[C@H]1O [Compound 179, (3R,6R,8R,9R,10R)-9-(((2S,3R,4S,6R)-4-(dimethylamino)-3-hydroxy-6-methyltetrahydro-2H-pyran-2-yl)oxy)-8-methoxy-4,6,8,10,12,12-hexamethyl-3-(1-((1-methyl-1H-imidazol-2-yl)methyl)piperidin-4-yl)-1-oxa-4-azacyclotridecane-11,13-dione]",MIC,[1],4 to 32 µg/mL
same,MIC,[2]; [6],< 4 µg/mL
same,MIC,[3],4 to 32 µg/mL
same,MIC,[4],> 32 µg/mL
same,MIC,[5],> 32 µg/mL
